# Assay results: patent US20210221848A1, “POLYMYXIN DERIVATIVES AND THEIR USE IN COMBINATION THERAPY TOGETHER WITH DIFFERENT ANTIBIOTICS” (priority 2014, published 2021)
# Like-named read-outs stand apart in the source and are kept apart here.
# Experiments:
# [1] = system: P. aeruginosa strains with elevated MICs to Polymyxin B; assay: MIC against strains with elevated MICs to Polymyxin B; assay type: cell-based, Pseudomonas aeruginosa; conditions: Table 6D; for MIC P. aeruginosa 066: strain 066, elevated MIC to Polymyxin B; for MIC P. aeruginosa 067: strain 067, elevated MIC to Polymyxin B; for MIC P. aeruginosa 065: strain 065, elevated MIC to Polymyxin B
# Description: (§1) The inoculum was prepared by making a direct suspension of isolated colonies (selected from an 18-24 hour Mueller-Hinton agar plate) adjusted to the 0.5 McFarland standard. […] The assays were performed in duplicate. […] In cases where the duplicate values varied by less than 2-fold, the lower of the two values is reported. If a variation of greater than 2-fold was observed, the assay was considered non-valid. Several of the compounds were subjected to multiple tests, and where this is the case, the MIC reflects the modal value obtained.
# (§2) The Further Synthesis Examples were tested against a range of Gram negative bacteria, and tested for HK-2 cell toxicity. All the worked examples, including the Synthesis and Further Synthesis Examples, were also tested against a range of Gram negative bacteria that are resistant to Polymyxin B (i.e. those strains where Polymyxin B has an elevated MIC value).
# [2] = system: E. coli
# [3] = system: K. pneumoniae
# [4] = system: A. baumannii
# [5] = system: K. pneumoniae strains with elevated MICs to Polymyxin B; assay: MIC against strains with elevated MICs to Polymyxin B; assay type: cell-based, Klebsiella pneumoniae; conditions: Table 6D; for MIC K. pneumoniae 062: strain 062, elevated MIC to Polymyxin B; for MIC K. pneumoniae 063: strain 063, elevated MIC to Polymyxin B; for MIC K. pneumoniae 064: strain 064, elevated MIC to Polymyxin B; for MIC K. pneumoniae 655: strain 655, elevated MIC to Polymyxin B
# Description: as §1, §2
# [6] = system: A. baumanii strains with elevated MICs to Polymyxin B; assay: as above; assay type: cell-based, Acinetobacter baumannii; conditions: Table 6D; for MIC A. baumannii 053: strain 053, elevated MIC to Polymyxin B; for MIC A. baumannii 056: strain 056, elevated MIC to Polymyxin B; for MIC A. baumannii 068: strain 068, elevated MIC to Polymyxin B; for MIC A. baumannii 070: strain 070, elevated MIC to Polymyxin B
# Description: as §1, §2
# [7] = system: P. aeruginosa
# [8] = system: E. coli strains with elevated MICs to Polymyxin B; assay: MIC against strains with elevated MICs to Polymyxin B; assay type: cell-based, Escherichia coli; conditions: Table 6D; for MIC E. coli 058: strain 058, elevated MIC to Polymyxin B; for MIC E. coli 059: strain 059, elevated MIC to Polymyxin B; for MIC E. coli 060: strain 060, elevated MIC to Polymyxin B; for MIC E. coli 061: strain 061, elevated MIC to Polymyxin B
# Description: as §1, §2
# [9] = absence of a second agent, Table 6B
Substance,MIC P. aeruginosa 066 [1],MIC P. aeruginosa 067 [1],"MIC, E. coli ATCC 25922 [2, 9]","MIC, E. coli NCTC 13441 [2, 9]","MIC, A. baumannii ATCC BAA-747 [4, 9]",MIC K. pneumoniae 062 [5],MIC K. pneumoniae 063 [5],MIC K. pneumoniae 064 [5],MIC K. pneumoniae 655 [5],MIC A. baumannii 053 [6],MIC A. baumannii 056 [6],MIC A. baumannii 068 [6],MIC A. baumannii 070 [6],"MIC, P. aeruginosa ATCC 27853 [7, 9]","MIC, P. aeruginosa CCUG 59347 [7, 9]",MIC E. coli 058 [8],MIC E. coli 059 [8],MIC E. coli 060 [8],MIC E. coli 061 [8],MIC P. aeruginosa 065 [1],other results
(cis-5-octylpiperidine)- 3-carbonyl polymyxin B nonapeptide [Example D21],2 micrograms/mL,4 micrograms/mL,0.5 micrograms/mL,0.5 micrograms/mL,0.5 micrograms/mL,2 micrograms/mL,32 micrograms/mL,1 micrograms/mL,32 micrograms/mL,8 micrograms/mL,4 micrograms/mL,1 micrograms/mL,2 micrograms/mL,0.5 micrograms/mL,0.5 micrograms/mL,1 micrograms/mL,0.5 micrograms/mL,1 micrograms/mL,2 micrograms/mL,–,"MIC, K. pneumoniae ATCC 4352 [3, 9]: 0.25 micrograms/mL; MIC, K. pneumoniae ATCC BAA-2146 [3, 9]: 1 micrograms/mL; MIC, A. baumannii NCTC 13424 [4, 9]: 2 micrograms/mL"
(S)-4-amino-2- (((S)-6- methyloctanoyl)ox- y)butanoyl polymyxin B nonapeptide [Example D93],–,–,–,–,–,–,–,–,–,–,–,–,–,–,–,8 micrograms/mL,–,–,–,2 micrograms/mL,"MIC, E. coli ATCC 25922 ([2]; sole activity, Table 6C): 0.25 micrograms/mL; MIC, K. pneumoniae ATCC 4352 ([3]; sole activity, Table 6C): 0.25 micrograms/mL; MIC, A. baumannii ATCC BAA-747 ([4]; sole activity, Table 6C): 0.25 micrograms/mL; MIC, A. baumannii NCTC 13424 ([4]; sole activity, Table 6C): 0.5 micrograms/mL; MIC, P. aeruginosa ATCC 27853 ([7]; sole activity, Table 6C): 0.25 micrograms/mL; MIC, P. aeruginosa CCUG 59347 ([7]; sole activity, Table 6C): 1 micrograms/mL"
4-octylpiperidine-3- carbonyl polymyxin B nonapeptide [Example D35],1 micrograms/mL,4 micrograms/mL,1 micrograms/mL,1 micrograms/mL,2 micrograms/mL,1 micrograms/mL,2 micrograms/mL,1 micrograms/mL,4 micrograms/mL,32 micrograms/mL,8 micrograms/mL,1 micrograms/mL,1 micrograms/mL,1 micrograms/mL,1 micrograms/mL,1 micrograms/mL,0.5 micrograms/mL,2 micrograms/mL,4 micrograms/mL,0.25 micrograms/mL,"MIC, K. pneumoniae ATCC 4352 [3, 9]: 2 micrograms/mL; MIC, K. pneumoniae ATCC BAA-2146 [3, 9]: 2 micrograms/mL; MIC, A. baumannii NCTC 13424 [4, 9]: 1 micrograms/mL"
trans-4- octylpyrrolidine-3- carbonyl polymyxin B nonapeptide [Example D31],32 micrograms/mL,>64 micrograms/mL,2 micrograms/mL,1 micrograms/mL,1 micrograms/mL,64 micrograms/mL,>128 micrograms/mL,64 micrograms/mL,>256 micrograms/mL,>128 micrograms/mL,64 micrograms/mL,4 micrograms/mL,4 micrograms/mL,0.5 micrograms/mL,1 micrograms/mL,2 micrograms/mL,8 micrograms/mL,4 micrograms/mL,16 micrograms/mL,16 micrograms/mL,"MIC, K. pneumoniae ATCC 4352 [3, 9]: 0.5 micrograms/mL; MIC, A. baumannii NCTC 13424 [4, 9]: 2 micrograms/mL"
5-(3- methylbutanamido) piperidine-3- carbonyl Polymyxin B nonapeptide [Example D64],64 micrograms/mL,>256 micrograms/mL,–,–,–,>256 micrograms/mL,>256 micrograms/mL,128 micrograms/mL,–,>256 micrograms/mL,256 micrograms/mL,128 micrograms/mL,>256 micrograms/mL,–,–,64 micrograms/mL,128 micrograms/mL,64 micrograms/mL,64 micrograms/mL,64 micrograms/mL,"MIC, E. coli ATCC 25922 ([2]; sole activity, Table 6C): 0.25 micrograms/mL; MIC, E. coli NCTC 13441 ([2]; sole activity, Table 6C): 0.25 micrograms/mL; MIC, K. pneumoniae ATCC 4352 ([3]; sole activity, Table 6C): 0.25 micrograms/mL; MIC, K. pneumoniae ATCC BAA-2146 ([3]; sole activity, Table 6C): 0.25 micrograms/mL; MIC, A. baumannii ATCC BAA-747 ([4]; sole activity, Table 6C): 2 micrograms/mL; MIC, A. baumannii NCTC 13424 ([4]; sole activity, Table 6C): 2 micrograms/mL; MIC, P. aeruginosa ATCC 27853 ([7]; sole activity, Table 6C): 1 micrograms/mL; MIC, P. aeruginosa CCUG 59347 ([7]; sole activity, Table 6C): 1 micrograms/mL"
Cis-5-(N- isobutylsulfamoyl) piperidine-3- carbonyl L-Thr-L- Dap-polymyxin B heptapeptide [Example D94],–,–,–,–,–,–,–,–,–,–,–,–,–,–,–,16 micrograms/mL,–,–,–,32 micrograms/mL,"MIC, E. coli ATCC 25922 ([2]; sole activity, Table 6C): 0.03 micrograms/mL; MIC, A. baumannii ATCC BAA-747 ([4]; sole activity, Table 6C): 0.06 micrograms/mL; MIC, A. baumannii NCTC 13424 ([4]; sole activity, Table 6C): 0.06 micrograms/mL; MIC, P. aeruginosa ATCC 27853 ([7]; sole activity, Table 6C): 0.5 micrograms/mL; MIC, P. aeruginosa CCUG 59347 ([7]; sole activity, Table 6C): 1 micrograms/mL"
(cis-5- cyclohexylpiperidine)- 3-carbonyl L-Thr-L- Dap-polymyxin B heptapeptide [Example D44],0.5 micrograms/mL,64 micrograms/mL,1 micrograms/mL,0.5 micrograms/mL,0.25 micrograms/mL,–,–,2 micrograms/mL,32 micrograms/mL,–,–,–,–,0.25 micrograms/mL,0.5 micrograms/mL,2 micrograms/mL,–,–,–,1 micrograms/mL,"MIC, K. pneumoniae ATCC BAA-2146 [3, 9]: 0.5 micrograms/mL"
